The values below come from US20120270908A1, “SUBSTITUTED 3 -HYDROZYPYRIDINES AND PHARMACEUTICAL COMPOSITIONS THEREOF” (priority 2007, published 2012).

One assay concerns the target T1, insulin receptor (Homo sapiens, UniProt P06213).
T1 construct: endogenous in cells; host or cells: HepG2 (human hepatoma)
The assay can be described thus: Activation of insulin receptor in HepG2 cells: phosphorylation of tyrosine residues 1162/1163, PhosphoDetect insulin receptor ELISA kit. The class given is cell-based. The note with it: 10 min, PBS with 5 mM glucose, percentage of the response to 100 nM insulin, mean±SEM (n=8). The text has this: It is generally recognized that the phosphorylation increase activity of receptor to about 200-fold as compared to unphosphorylated one.
On the technique in general: ELISA stands for enzyme-linked immunosorbent assay.

For assay [1], the system named is streptozotocin-induced male albino Wistar rats. The assay can be described thus: Streptozotocin-induced decompensated insulin resistance in rats: fasting serum glucose, plasma insulin, plasma triglycerides. The format is in vivo. The note with it: mean±SEM (n=10); for Glucose: fasting serum; for Insulin / Triglycerides: plasma. As for the experimental part: The rats with glucose levels more than 14.0 mmol/1 were used in the experiment one week after the streptozotocin injection.
Streptozotocin-induced rats were assigned to three groups: a control rats (n=10) and experimental rats (n=20). Control rats received daily i.p. injections of saline for 7 days. Experimental rats received daily i.p. injections of 10 mg/kg 2-Ethyl-4,6-dimethyl-3-hydroxypyridine, succinic acid salt (1:1); or 2-Ethyl-4,5,6-trimethyl-3-hydroxypyridine, succinic acid salt (1:1) for 7 days. Biochemical parameters were determined just before start of the treatment and on 14 day from the start of the treatment.

Where [2] appears, read: 14 Day from start, 10 mg/kg i.p. daily for 7 days.
Setting [3] is: before treatment (baseline of the group).

T1 sequence (P06213 28-758 limits assumed): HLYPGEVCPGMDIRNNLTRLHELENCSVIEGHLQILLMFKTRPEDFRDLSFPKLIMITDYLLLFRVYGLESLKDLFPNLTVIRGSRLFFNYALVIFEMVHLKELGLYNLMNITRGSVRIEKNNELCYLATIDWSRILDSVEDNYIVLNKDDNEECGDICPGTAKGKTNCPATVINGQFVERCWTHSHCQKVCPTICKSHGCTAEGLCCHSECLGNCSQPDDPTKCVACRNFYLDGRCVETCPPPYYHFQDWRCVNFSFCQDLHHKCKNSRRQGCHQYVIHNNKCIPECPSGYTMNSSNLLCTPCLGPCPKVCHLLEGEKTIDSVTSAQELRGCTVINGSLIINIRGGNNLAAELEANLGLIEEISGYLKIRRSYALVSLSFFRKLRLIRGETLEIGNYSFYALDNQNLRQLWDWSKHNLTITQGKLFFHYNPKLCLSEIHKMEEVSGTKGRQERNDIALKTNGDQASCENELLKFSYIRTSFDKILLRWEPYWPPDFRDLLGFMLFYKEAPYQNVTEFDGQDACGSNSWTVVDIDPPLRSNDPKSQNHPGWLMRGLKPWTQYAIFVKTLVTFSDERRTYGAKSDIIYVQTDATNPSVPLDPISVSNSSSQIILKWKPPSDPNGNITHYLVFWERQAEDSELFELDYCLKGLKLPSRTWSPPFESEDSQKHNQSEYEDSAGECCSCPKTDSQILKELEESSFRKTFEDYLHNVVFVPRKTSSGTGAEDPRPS
T1 sequence (P06213 763-1382 limits assumed): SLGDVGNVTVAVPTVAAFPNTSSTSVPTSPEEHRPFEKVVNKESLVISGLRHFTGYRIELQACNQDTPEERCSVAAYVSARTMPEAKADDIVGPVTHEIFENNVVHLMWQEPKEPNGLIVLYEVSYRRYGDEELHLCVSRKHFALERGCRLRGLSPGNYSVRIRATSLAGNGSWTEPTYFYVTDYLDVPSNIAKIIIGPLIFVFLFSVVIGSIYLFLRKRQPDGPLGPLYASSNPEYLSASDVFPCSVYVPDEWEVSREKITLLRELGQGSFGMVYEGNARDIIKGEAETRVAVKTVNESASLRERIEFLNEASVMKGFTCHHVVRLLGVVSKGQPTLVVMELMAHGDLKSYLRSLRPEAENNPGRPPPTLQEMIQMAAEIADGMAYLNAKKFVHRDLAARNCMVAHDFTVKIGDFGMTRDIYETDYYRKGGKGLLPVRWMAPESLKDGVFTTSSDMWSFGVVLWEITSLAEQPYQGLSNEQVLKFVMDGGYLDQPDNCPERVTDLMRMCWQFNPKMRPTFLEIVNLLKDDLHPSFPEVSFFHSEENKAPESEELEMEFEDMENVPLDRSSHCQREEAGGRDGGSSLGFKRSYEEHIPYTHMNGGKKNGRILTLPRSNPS

Turning to `CCc1nc(C)cc(C)c1O.O=C(O)CCC(=O)O` [2-Ethyl-4,6-dimethyl-3-hydroxypyridine, succinic acid salt (1:1)], the “Insulin receptor phosphorylation, %” value on insulin receptor (compound 50 μM alone) worked out at 14 ± 4%; at insulin receptor (insulin 5 nM + compound 50 μM), 56 ± 7 %. Further, the Glucose was 8.5 ± 1.3 mmol/L in assay [1] (setting [2]) and 15.9 ± 2.1 mmol/L in assay [1] (setting [3]). In addition, the figures for the Insulin in assay [1] (setting [2]) and in assay [1] (setting [3]) were 2.9 ± 0.4 ng/mL and 11.2 ± 1.7 ng/mL, respectively. For the same molecule, the Triglycerides turned out to be 1.8 ± 0.4 mmol/L in assay [1] (setting [2]) and 2.9 ± 0.4 mmol/L in assay [1] (setting [3]).
Regarding `CCc1nc(C)c(C)c(C)c1O.O=C(O)CCC(=O)O` [2-Ethyl-4,5,6-trimethyl-3-hydroxypyridine, succinic acid salt (1:1)], on insulin receptor (compound 50 μM alone), the “Insulin receptor phosphorylation, %” value was 13 ± 2%. Also, the “Insulin receptor phosphorylation, %” value at insulin receptor (insulin 5 nM + compound 50 μM) came to 62 ± 8 %. For the same molecule, in assay [1] (setting [2]), the Glucose is 7.3 ± 1.1 mmol/L, the Insulin worked out at 2.3 ± 0.5 ng/mL and the Triglycerides was found to be 1.6 ± 0.3 mmol/L. For the same molecule, in assay [1] (setting [3]), the Glucose was found to be 16.0 ± 2.6 mmol/L, the Insulin turned out to be 11.4 ± 2.0 ng/mL and the Triglycerides worked out at 3.1 ± 0.2 mmol/L.
